19 molecules from PubChem BioAssay AID256 (DTP/NCI, 2004) can be followed below.

The test system of this test is CD2F1 mice, L1210 leukemia ip, survival T/C. As to the kind of experiment: NCI In Vivo Anticancer Drug Screen. Data for tumor model L1210 Leukemia (intraperitoneal) in CD2F1 (CDF1) mice. To be noted: higher = longer survival. In short, it runs like this:
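Compound-dosed mice with transplantable tumor versus matched vehicle controls; endpoint ratio T/C reported.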

The mark [1] stands for this setting: endpoint: mean survival time, dose: 50.0 mg/kg/injection, schedule: Q01DX009 (ip), vehicle: saline with Tween-80.
Where [2] appears, read: endpoint: mean survival time, dose: 100.0 mg/kg/injection, schedule: Q01DX009 (ip), vehicle: saline with Tween-80.
[3] abbreviates: endpoint: mean survival time, dose: 200.0 mg/kg/injection, schedule: Q01DX009 (ip), vehicle: saline with Tween-80.
The mark [4] stands for this setting: endpoint: mean survival time, dose: 100.0 mg/kg/injection, schedule: Q04DX003 (ip), vehicle: saline with Tween-80.
The mark [5] stands for this setting: endpoint: mean survival time, dose: 200.0 mg/kg/injection, schedule: Q04DX003 (ip), vehicle: saline with Tween-80.
Where [6] appears, read: endpoint: mean survival time, dose: 25.0 mg/kg/injection, schedule: Q01DX009 (ip), vehicle: other.
[7] abbreviates: endpoint: mean survival time, dose: 50.0 mg/kg/injection, schedule: Q01DX009 (ip), vehicle: other.
[8] abbreviates: endpoint: mean survival time, dose: 100.0 mg/kg/injection, schedule: Q01DX009 (ip), vehicle: other.
Where [9] appears, read: endpoint: mean survival time, dose: 200.0 mg/kg/injection, schedule: Q01DX009 (ip), vehicle: other.
Setting [10] is: endpoint: mean survival time, dose: 400.0 mg/kg/injection, schedule: Q01DX009 (ip), vehicle: other.
The mark [11] stands for this setting: endpoint: mean survival time, dose: 100.0 mg/kg/injection, schedule: Q01DX001 (ip), vehicle: saline with Tween-80.
Setting [12] is: endpoint: mean survival time, dose: 25.0 mg/kg/injection, schedule: Q04DX002 (ip), vehicle: saline.

Structures are written as SMILES. Several values for one entry are separate records, joined by “and”; a condition that tells them apart may be missing. Identical values can stand only once. Inconclusive results and toxic doses are left out.

For `C[C@]12CC[C@@H]3c4ccc(OC(=O)Cc5ccc(N(CCCl)CCCl)cc5)cc4CC[C@H]3[C@@H]1CC[C@@H]2OC(=O)Cc1ccc(N(CCCl)CCCl)cc1`, the T/C runs as follows: (endpoint: median survival time, dose: 25.0 mg/kg/injection, schedule: Q01DX009 (ip), vehicle: Klucel (hydroxypropylcellulose) (HPC)) 89 % of control; (endpoint: median survival time, dose: 50.0 mg/kg/injection, schedule: Q01DX009 (ip), vehicle: Klucel (hydroxypropylcellulose) (HPC)) 92 % of control; (endpoint: median survival time, dose: 100.0 mg/kg/injection, schedule: Q01DX009 (ip), vehicle: Klucel (hydroxypropylcellulose) (HPC)) 94 % of control; (endpoint: median survival time, dose: 200.0 mg/kg/injection, schedule: Q01DX009 (ip), vehicle: Klucel (hydroxypropylcellulose) (HPC)) 92 % of control; (endpoint: median survival time, dose: 400.0 mg/kg/injection, schedule: Q01DX009 (ip), vehicle: Klucel (hydroxypropylcellulose) (HPC)) 101 % of control.
In the case of `O=Cc1cc(=O)n2c3c(cccc13)CCC2`, the T/C (endpoint: mean survival time, dose: 100.0 mg/kg/injection, schedule: Q04DX003 (ip), vehicle: saline) was 98 % of control and the T/C (endpoint: mean survival time, dose: 200.0 mg/kg/injection, schedule: Q04DX003 (ip), vehicle: saline) was 98 % of control.
In the case of `Nc1nc(N)c(N)c(/C=C/c2ccccc2)n1`, the T/C is 101 % of control (endpoint: mean survival time, dose: 0.32 mg/kg/injection, schedule: Q01DX009 (ip), vehicle: other); 106 % of control (endpoint: mean survival time, dose: 0.63 mg/kg/injection, schedule: Q01DX009 (ip), vehicle: other); 97 % of control (endpoint: mean survival time, dose: 0.63 mg/kg/injection, schedule: Q01DX009 (ip), vehicle: water); 98 % of control (endpoint: mean survival time, dose: 1.25 mg/kg/injection, schedule: Q01DX009 (ip), vehicle: other); 103 % of control (endpoint: mean survival time, dose: 1.25 mg/kg/injection, schedule: Q01DX009 (ip), vehicle: water); 101 % of control (endpoint: mean survival time, dose: 2.5 mg/kg/injection, schedule: Q01DX009 (ip), vehicle: other). Further, the T/C by setting is: (endpoint: mean survival time, dose: 2.5 mg/kg/injection, schedule: Q01DX009 (ip), vehicle: water) 97 % of control; (endpoint: mean survival time, dose: 5.0 mg/kg/injection, schedule: Q01DX009 (ip), vehicle: other) 101 % of control; (endpoint: mean survival time, dose: 5.0 mg/kg/injection, schedule: Q01DX009 (ip), vehicle: water) 97 % of control.
On to `CCCC/C=C/C(C)(C)O`, for which the T/C under setting [1] was 107 % of control, the T/C under setting [2] was 103 % of control and the T/C under setting [3] is 107 % of control.
Consider `S=c1[nH]nc2n1NC(c1ccoc1)=NN2`, for which the T/C is 96 % of control (endpoint: mean survival time, dose: 25.0 mg/kg/injection, schedule: Q04DX003 (ip), vehicle: saline with Tween-80); 100 % of control (endpoint: mean survival time, dose: 50.0 mg/kg/injection, schedule: Q04DX003 (ip), vehicle: saline with Tween-80); 90 % of control and 93 % of control under setting [4]; 107 % of control under setting [5].
Turning to `NC1=NC(=O)N2CC12` (stereo not given), the T/C was 100 % of control (endpoint: mean survival time, dose: 12.5 mg/kg/injection, schedule: Q01DX009 (ip), vehicle: other); 107 % of control (endpoint: mean survival time, dose: 12.5 mg/kg/injection, schedule: Q01DX009 (ip), vehicle: saline); 100 % of control under setting [6]; 106 % of control and 110 % of control (endpoint: mean survival time, dose: 25.0 mg/kg/injection, schedule: Q01DX009 (ip), vehicle: saline); 105 % of control under setting [7]; 115 % of control and 110 % of control (endpoint: mean survival time, dose: 50.0 mg/kg/injection, schedule: Q01DX009 (ip), vehicle: saline). Also, for the setting “endpoint: mean survival time, dose: 200.0 mg/kg/injection, schedule: Q01DX009 (ip), vehicle: saline”, the T/C is 156 % of control and 173 % of control.
Regarding `Nc1ncnc2c1ncn2C1OC(COP(N)(N)=O)C(O)C1O` (stereo not given), the T/C by setting is: (endpoint: mean survival time, dose: 12.5 mg/kg/injection, schedule: Q01DX005 (ip), vehicle: distilled water + Tween-80) 105 % of control; (endpoint: mean survival time, dose: 25.0 mg/kg/injection, schedule: Q01DX005 (ip), vehicle: distilled water + Tween-80) 98 % of control; (endpoint: mean survival time, dose: 50.0 mg/kg/injection, schedule: Q01DX005 (ip), vehicle: distilled water + Tween-80) 96 % of control; (endpoint: mean survival time, dose: 100.0 mg/kg/injection, schedule: Q01DX005 (ip), vehicle: distilled water + Tween-80) 102 % of control; (endpoint: mean survival time, dose: 200.0 mg/kg/injection, schedule: Q01DX005 (ip), vehicle: distilled water + Tween-80) 96 % of control.
For `CCCCCCCCCCSCC(N)C(=O)O` (stereo not given), the T/C reads like this: under setting [6], 88 % of control; under setting [7], 88 % of control; under setting [8], 94 % of control; under setting [9], 94 % of control; under setting [10], 97 % of control.
Regarding `CC1CCc2ccccc2N1CCN` (stereo not given), the T/C (endpoint: mean survival time, dose: 100.0 mg/kg/injection, schedule: Q04DX003 (ip), vehicle: Klucel (hydroxypropylcellulose) (HPC)) was 95 % of control.
In the case of `COC1=C(OC)C(=O)C(C/C=C(\C)CCCC(C)CCCC(C)CCCC(C)C)=C(C)C1=O` (stereo not given), the T/C is 94 % of control under setting [8], 95 % of control under setting [9] and 94 % of control under setting [10].
For `O=C(Cc1ccccc1)c1ccc(O)cc1`, the T/C runs as follows: under setting [4], 100 % of control; under setting [5], 103 % of control; (endpoint: mean survival time, dose: 400.0 mg/kg/injection, schedule: Q04DX003 (ip), vehicle: saline with Tween-80) 111 % of control.
For `CCOC(=O)c1c(O)c2c([nH]c1=O)CCc1ccccc1-2`, the T/C (endpoint: mean survival time, dose: 12.5 mg/kg/injection, schedule: Q01DX009 (ip), vehicle: saline with Tween-80) is 98 % of control; the T/C (endpoint: mean survival time, dose: 25.0 mg/kg/injection, schedule: Q01DX001 (ip), vehicle: saline with Tween-80) is 98 % of control; the T/C (endpoint: mean survival time, dose: 25.0 mg/kg/injection, schedule: Q01DX009 (ip), vehicle: saline with Tween-80) is 95 % of control; the T/C (endpoint: mean survival time, dose: 50.0 mg/kg/injection, schedule: Q01DX001 (ip), vehicle: saline with Tween-80) is 93 % of control; the T/C under setting [1] was 95 % of control; the T/C under setting [11] is 103 % of control.
For `O=[N+]([O-])c1ccc(Sc2ncnc3nc[nH]c23)c([N+](=O)[O-])c1`, the T/C reads like this: (endpoint: mean survival time, dose: 16.6 mg/kg/injection, schedule: Q01DX005 (ip), vehicle: other) 154 % of control; (endpoint: mean survival time, dose: 25.0 mg/kg/injection, schedule: Q01DX005 (ip), vehicle: other) 167 % of control; (endpoint: mean survival time, dose: 37.5 mg/kg/injection, schedule: Q01DX005 (ip), vehicle: other) 162 % of control; (endpoint: mean survival time, dose: 56.3 mg/kg/injection, schedule: Q01DX005 (ip), vehicle: other) 167 % of control.
In the case of `NC1CCC(Br)C2CCCCC12` (stereo not given), the T/C is 103 % of control (endpoint: mean survival time, dose: 5.0 mg/kg/injection, schedule: Q01DX001 (ip), vehicle: saline with Tween-80); 103 % of control (endpoint: mean survival time, dose: 10.0 mg/kg/injection, schedule: Q01DX001 (ip), vehicle: saline with Tween-80); 104 % of control (endpoint: mean survival time, dose: 20.0 mg/kg/injection, schedule: Q01DX001 (ip), vehicle: saline with Tween-80).
Turning to `O=C1NC(c2ccccc2Cl)Nc2ccccc21` (stereo not given), the T/C is, setting by setting: (endpoint: mean survival time, dose: 50.0 mg/kg/injection, schedule: Q01DX009 (ip), vehicle: Klucel (hydroxypropylcellulose) (HPC)) 91 % of control; (endpoint: mean survival time, dose: 100.0 mg/kg/injection, schedule: Q01DX009 (ip), vehicle: Klucel (hydroxypropylcellulose) (HPC)) 107 % of control; (endpoint: mean survival time, dose: 200.0 mg/kg/injection, schedule: Q01DX009 (ip), vehicle: Klucel (hydroxypropylcellulose) (HPC)) 93 % of control; (endpoint: mean survival time, dose: 400.0 mg/kg/injection, schedule: Q01DX009 (ip), vehicle: Klucel (hydroxypropylcellulose) (HPC)) 93 % of control.
Take `CNC1CC2CCC1(C)C2(C)C` (stereo not given): the T/C was 101 % of control under setting [12]; 112 % of control (endpoint: mean survival time, dose: 50.0 mg/kg/injection, schedule: Q04DX002 (ip), vehicle: saline); 96 % of control (endpoint: mean survival time, dose: 100.0 mg/kg/injection, schedule: Q04DX002 (ip), vehicle: saline).
Turning to `Cc1ccccc1CC#N`, the T/C runs as follows: (endpoint: mean survival time, dose: 12.5 mg/kg/injection, schedule: Q04DX002 (ip), vehicle: saline) 96 % of control; under setting [12], 99 % of control.
Turning to `S=C(NCCSC(=S)Nc1ccccc1)Nc1ccccc1`, the T/C reads like this: under setting [2], 91 % of control; under setting [3], 89 % of control; (endpoint: mean survival time, dose: 400.0 mg/kg/injection, schedule: Q01DX009 (ip), vehicle: saline with Tween-80) 106 % of control.
Consider `CNC(=O)O/N=C1\CCCc2sccc21`, for which the T/C was 110 % of control under setting [11]; 110 % of control (endpoint: mean survival time, dose: 200.0 mg/kg/injection, schedule: Q01DX001 (ip), vehicle: saline with Tween-80); 101 % of control (endpoint: mean survival time, dose: 400.0 mg/kg/injection, schedule: Q01DX001 (ip), vehicle: saline with Tween-80).
